Reference: paper PMC10931833, “Simultaneous Purification of Human Interferon Alpha-2b and Serum Albumin Using Bioprivileged Fluorinated Ionic Liquid-Based Aqueous Biphasic Systems” (International Journal of Molecular Sciences, 2024)

Tests used:
[1] = target: T1, FITC-BSA (Bos taurus, UniProt P02769); assay: MST binding to FITC-BSA; design: species or system bovine; conditions: 0.41 μM BSA
T1 construct: purchased Millipore Sigma-Aldrich
Protocol: Herein, a commercial FITC labeling kit (Section 3) was used to fluorescently tag both IFN- α 2b and BSA. Typically, in the labeling process, one amine per protein is labeled, statistically distributing the position of the dye. […] The MST assay was performed as detailed in Section 3. The solutions were prepared with a concentration of IFN- α 2b and BSA fixed at 0.41 μ M in water. For IFN- α 2b a concentration of 2.7 μ M was also prepared to compare it with previous results on MST-binding between FILs and IFN- α 2b fluorescently labeled with a different tag. In each run of MST, a maximum concentration of a ligand is selected and consecutively diluted in sixteen capillaries. […] The experimental conditions of the MST assay only allow the study of the aggregation phenomenon individually for the first CAC.
Microscale thermophoresis (MST) measurements of the dye-labeled protein were used to conduct binding investigations. […] MST tests were conducted in a monolith NT.115 (blue/red) in accordance with the NanoTemper Technologies methodology. Medium MST power and 20% LED power (nano-blue) were set as the instrument’s default settings. For every MST measurement, a PBS buffer was used. The concentration of FITC-BSA was fixed at 0.4 μ M and FITC-IFN- α 2b was tested under two different concentrations (of 0.4 and 2.7 μ M). The ligand was used to create a set of 16 1:1 dilutions, with the starting ligand concentrations ranging from 10 to 400 mM. The typical parameters for MST traces were used for recording: […], 30 s MST power on, and 5 s MST power off. The data from three independently conducted pipetted experiments were examined using NanoTemper Technologies’ MO.Affinity Analysis software, version 2.3.

[2] = target: T2, BSA (Bos taurus, UniProt P02769); assay: DSC thermal unfolding of BSA in water and aqueous solutions of ABS phase-forming components; assay type: physicochemical, bovine; conditions: for Tm / ΔG / ΔHcal / ΔHcal/ΔHvH / ΔHvH / ΔS: 1.0 mg/mL BSA
T2 construct: purchased Millipore Sigma-Aldrich
Protocol: Differential scanning calorimetry (DSC) measurements were performed with Nano DSC equipment, as detailed in Section 3, and used to determine the melting temperature (T m ) and enthalpy ( Δ H) of protein unfolding. DSC analyzes changes in the structure and stability of proteins as thermal transitions at the nanoscale. Using DSC to measure heat capacity as a function of the temperature of a well-studied protein such as BSA provides keen insights into folding and unfolding processes, as well as factors affecting stability. Due to the volume and concentration requirements of the DSC technique, and the constraints in available quantities of IFN- α 2b the DSC experiments on the ABS phase-forming components’ effect on the structural properties of proteins were attained only for BSA.
The T m of BSA, which corresponds to the thermal unfolding transition midpoint, was measured in the absence and presence of the ABS phase-forming components at increasing concentrations (see Figure 1 and Table 2).

[3] = target: T2, BSA; assay: CD thermal unfolding (Tm) of BSA; assay type: physicochemical, bovine; conditions: 1.0 mg/ml BSA, 200 mM component aqueous solution
Description: The thermal stability assessed by far-UV CD is solely determined through the thermal decay of the alpha-helical structure.

[4] = target: T2, BSA; assay: Far-UV CD secondary structure of BSA (CONTIN-LL deconvolution); assay type: physicochemical, bovine; conditions: 1.0 mg/mL BSA, 25 °C
Description: Circular dichroism (CD) is widely used to study the secondary structures of proteins, peptides and nucleic acids, because it requires a low concentration sample, is a nondestructive method, allows studying a wide range of variables (temperature, pH, etc.), and provides information on the effect of added ligands on protein folding and interactions. Far-UV (190–260 nm) CD spectroscopy was used to assess the IFN- α 2b and BSA secondary structure since the spectra are characteristic of different structural elements.
(§1) Circular dichroism (CD) spectra were collected in a 10 mm quartz cuvette and a Chirascan spectropolarimeter (Applied Photophysics, UK) at room temperature. All CD spectra were recorded in the far-UV range of 190 to 260 nm at scan rates of 50 nm/min, with 4 accumulations, and a response time of 3 s; CD spectra were collected. For each CD experiment, two distinct duplicates were acquired and combined. BSA was fixed at 1 mg/mL, solvent concentrations ranging from 0.1 to 200 mM were used, and the spectra were translated to MRE after being expressed in terms of molar ellipticity. Spectral deconvolution was carried out with DichroWeb using the CONTIN-LL deconvolution algorithm with the SMP180 reference set.

[5] = target: T3, IFN-α2b (Homo sapiens, UniProt P01563); assay: Far-UV CD secondary structure of IFN-α2b (CONTIN-LL deconvolution); assay type: physicochemical
T3 construct: single non-glycosylated polypeptide chain with a molecular weight of 19 kDa, comprising 165 amino acids; purchased Millipore Sigma-Aldrich SRP4595-100UG; host or cells: E. coli
Description: Circular dichroism (CD) is widely used to study the secondary structures of proteins, peptides and nucleic acids, because it requires a low concentration sample, is a nondestructive method, allows studying a wide range of variables (temperature, pH, etc.), and provides information on the effect of added ligands on protein folding and interactions.
as §1, with “BSA was fixed at 1 mg/mL, solvent concentrations ranging from 0.1 to 200 mM were used, and the spectra were translated to MRE after being expressed in terms of molar ellipticity.” left out

[6] = ref 44 (IFN-α2b), 91 (BSA), 96 (Lys); cited from earlier work
[7] = target: T3, IFN-α2b; assay: CD thermal unfolding (Tm) of IFN-α2b; assay type: physicochemical
Protocol: The same analyses attained for 208 nm and 192 nm are illustrated in Figures S5 and S6 in the Supplementary Materials. The corresponding T m values are estimated by fitting to a sigmoid with four parameters (one-way ANOVA, significance level of 0.05) and summarized in Table S2 in the Supplementary Materials. The CD T m of 0.125 mg/mL native IFN- α 2b is in good agreement with what was previously reported. […] The estimated T m values are summarized in Table S2 in the Supplementary Materials. The same analysis is attained for 208 nm and 192 nm, as depicted in Figures S5 and S6 in the Supplementary Materials. All the CD T m results are summarized in Table S2 in the Supplementary Materials. The thermal stability assessed by far-UV CD is solely determined through the thermal decay of the alpha-helical structure.
The same analysis was attained for 208 nm and 192 nm as illustrated in Figure S13 in the Supplementary Materials. The corresponding T m values are depicted in Table 5, and were estimated by fitting a sigmoid with four parameters (one-way ANOVA, with a significance level of 0.05).

[8] = 0.125 mg/mL IFN-α2b in water, 25 °C
[9] = 0.099-0.12 mg/mL IFN-α2b in [N1112(OH)][C4F9SO3]-rich phase of BP#8

T2 sequence (P02769 25-607): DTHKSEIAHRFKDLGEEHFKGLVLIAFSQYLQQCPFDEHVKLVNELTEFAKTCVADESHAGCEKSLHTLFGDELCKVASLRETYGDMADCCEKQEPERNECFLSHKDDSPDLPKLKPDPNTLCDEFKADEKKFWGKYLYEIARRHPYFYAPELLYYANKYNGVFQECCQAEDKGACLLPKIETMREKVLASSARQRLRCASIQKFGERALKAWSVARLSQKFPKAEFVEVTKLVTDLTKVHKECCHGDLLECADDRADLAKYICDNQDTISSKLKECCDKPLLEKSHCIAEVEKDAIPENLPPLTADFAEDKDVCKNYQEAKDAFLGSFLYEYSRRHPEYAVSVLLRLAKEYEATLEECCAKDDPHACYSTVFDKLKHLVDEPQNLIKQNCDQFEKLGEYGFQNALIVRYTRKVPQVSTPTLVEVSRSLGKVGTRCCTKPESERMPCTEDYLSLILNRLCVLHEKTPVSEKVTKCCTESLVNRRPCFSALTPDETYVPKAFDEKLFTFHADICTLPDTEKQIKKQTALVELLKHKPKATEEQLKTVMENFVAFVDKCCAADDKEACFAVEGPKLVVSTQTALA
T3 sequence (P01563 24-188): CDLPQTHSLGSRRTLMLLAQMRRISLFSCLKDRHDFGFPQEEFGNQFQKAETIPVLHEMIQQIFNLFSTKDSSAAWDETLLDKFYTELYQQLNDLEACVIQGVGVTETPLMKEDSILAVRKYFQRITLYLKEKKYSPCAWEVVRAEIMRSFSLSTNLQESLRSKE
T1 sequence (P02769 25-607): as the sequence (P02769 25-607) above

## C[N+](C)(C)CCO.C[N+](C)(C)CCO.O=P([O-])(O)O.O=P([O-])(O)O [[N1112(OH)][H2PO4], Choline ((2-hydroxyethyl)trimethylammonium) dihydrogen phosphate]
[1]; max. conc. first capillary 12.5 mM (monomer)
  Kd: no binding detected
[1]; max. conc. first capillary 400 mM (monomer)
  Kd: no binding detected
[2]; 0.1 mM component
  Tm: 75.36 °C
  ΔG: 63.60 kJ/mol
  ΔHcal: 442.9 kJ/mol
  ΔHcal/ΔHvH: 0.949
  ΔHvH: 466.8 kJ/mol
  ΔS: 1.272 KJ/(mol.K)
[2]; 1 mM component
  Tm: 81.59 °C
  ΔG: 75.40 kJ/mol
  ΔHcal: 470.4 kJ/mol
  ΔHcal/ΔHvH: 0.613
  ΔHvH: 766.8 kJ/mol
  ΔS: 1.325 KJ/(mol.K)
[2]; 5 mM component
  Tm: 80.80 °C
  ΔG: 107.6 kJ/mol
  ΔHcal: 678.6 kJ/mol
  ΔHcal/ΔHvH: 1.081
  ΔHvH: 627.7 kJ/mol
  ΔS: 1.915 KJ/(mol.K)
[2]; 10 mM component
  Tm: 73.90 °C
  ΔG: 72.90 kJ/mol
  ΔHcal: 513.7 kJ/mol
  ΔHcal/ΔHvH: 0.998
  ΔHvH: 514.8 kJ/mol
  ΔS: 1.479 KJ/(mol.K)
[2]; tested concentration range vs water
  effect on BSA Tm (DSC): maintained
[3]
  Tm, Ellipticity 192 nm: 65.691 °C
  Tm, Ellipticity 208 nm: 76.945 °C
  Tm, Ellipticity 222 nm: 66.702 °C
[4]; 0.1 mM component
  Distorted Alpha Helix: 0.204
  Distorted Beta Sheet: 0.031
  Regular Alpha Helix: 0.397
  Regular Beta Sheet: 0.000
  Turns: 0.147
  Unordered: 0.221
[4]; 1 mM component
  Distorted Alpha Helix: 0.210
  Distorted Beta Sheet: 0.023
  Regular Alpha Helix: 0.393
  Regular Beta Sheet: 0.000
  Turns: 0.132
  Unordered: 0.242
[4]; 5 mM component
  Distorted Alpha Helix: 0.203
  Distorted Beta Sheet: 0.023
  Regular Alpha Helix: 0.377
  Regular Beta Sheet: 0.004
  Turns: 0.128
  Unordered: 0.265
[4]; 25 mM component
  Distorted Alpha Helix: 0.195
  Distorted Beta Sheet: 0.029
  Regular Alpha Helix: 0.36
  Regular Beta Sheet: 0.015
  Turns: 0.136
  Unordered: 0.266
[4]; 55 mM component
  Distorted Alpha Helix: 0.150
  Distorted Beta Sheet: 0.055
  Regular Alpha Helix: 0.242
  Regular Beta Sheet: 0.080
  Turns: 0.153
  Unordered: 0.320
[4]; 90 mM component
  Distorted Alpha Helix: 0.171
  Distorted Beta Sheet: 0.044
  Regular Alpha Helix: 0.294
  Regular Beta Sheet: 0.057
  Turns: 0.145
  Unordered: 0.289
[4]; 120 mM component
  Distorted Alpha Helix: 0.207
  Distorted Beta Sheet: 0.029
  Regular Alpha Helix: 0.396
  Regular Beta Sheet: 0.018
  Turns: 0.141
  Unordered: 0.208
[4]; 200 mM component
  Distorted Alpha Helix: 0.202
  Distorted Beta Sheet: 0.032
  Regular Alpha Helix: 0.386
  Regular Beta Sheet: 0.021
  Turns: 0.146
  Unordered: 0.212

## Human interferon-alpha 2b [IFN-α2b]
[5]; [8]
  Distorted Alpha Helix: 0.145
  Distorted Beta Sheet: 0.071
  Regular Alpha Helix: 0.289
  Regular Beta Sheet: 0.049
  Turns: 0.209
  Unordered: 0.238
[5]; IFN-α2b in water, CD deconvolution
  predicted α-helical content: 0.44
[6]
  iso-electric point: around 5.9
[7]; 0.125 mg/mL IFN-α2b in water
  Tm, Ellipticity 192 nm: 63.311 °C
  Tm, Ellipticity 208 nm: 66.156 °C
  Tm, Ellipticity 222 nm: 67.548 °C
[7]; [9]
  Tm, Ellipticity 192 nm: 42.274 °C
  Tm, Ellipticity 208 nm: 71.217 °C
  Tm, Ellipticity 222 nm: 62.080 °C

## lysozyme
[6]
  iso-electric point: approximately 11.0
